Laboratory results published in article PMC4982551 (MedChemComm, 2016).

System: selected panel of PTPs (mPTPB, SHP2, PTP1B, CD45, LYP, FAP-1)
Assay: PTP activity assay, selected panel of PTPs
Format: biochemical
Conditions: pH 7, 25 °C

In the case of `O=C(COc1ccc2cc(C(O)(C(F)(F)F)C(F)(F)F)c(O)cc2c1)NCCc1ccc(Cl)cc1Cl` [7h], the “PTP inhibitory activity (in words)” value is reported as “moderate activities”.

With `O=C(COc1ccc2cc(C(O)(C(F)(F)F)C(F)(F)F)c(O)cc2c1)NC12CC3CC(CC(C3)C1)C2` [7d] the “PTP inhibitory activity (in words)” value was “moderate activities”.

In the case of `Cc1ccc(O)c(C(O)(C(F)(F)F)C(F)(F)F)c1` [1b], the “PTP inhibitory activity (in words)” value is reported as “moderate activity”.

`O=C(COc1ccc2cc(C(O)(C(F)(F)F)C(F)(F)F)c(O)cc2c1)NC1c2ccccc2-c2ccccc21` [7i] was tested, and the “PTP inhibitory activity (in words)” value was “moderate activities”.

With `OC(c1ccccc1)(C(F)(F)F)C(F)(F)F` [1a] the “PTP inhibitory activity (in words)” value was “No appreciable activity”.

`O=C(COc1ccc2cc(C(O)(C(F)(F)F)C(F)(F)F)c(O)cc2c1)N1c2ccccc2Sc2ccccc21` [7p] was tested, and the “PTP inhibitory activity (in words)” value was “very high activity”.

For `Oc1cc2ccccc2cc1C(O)(C(F)(F)F)C(F)(F)F` [1f], the “PTP inhibitory activity (in words)” value was “the most potent one”.
